We go through 28 compounds from ChEMBL document CHEMBL4616635, “Investigations of antiproliferative and antioxidant activity of β-lactam morpholino-1,3,5-triazine hybrids” (Bioorg Med Chem, 2020).

One experiment relates to SW 1116. In words: Antiproliferative activity against human SW1116 cells assessed as inhibition of cell growth after overnight incubation by MTT assay. The format is functional, cell-based. (Formazan colour is commonly taken as a measure of viable cells.)
The next experiment has as its system HEK293. In words: Cytotoxicity against human HEK293 cells assessed as inhibition of cell growth after overnight incubation by MTT assay. In kind it is cell-based.
A further experiment deals with MCF7. In words: Antiproliferative activity against human MCF7 cells assessed as inhibition of cell growth after overnight incubation by MTT assay. The format is functional, cell-based.
The subject of another experiment is HepG2. Put plainly: Antiproliferative activity against human HepG2 cells assessed as inhibition of cell growth after overnight incubation by MTT assay. The format is functional, cell-based.
Experiment [1] in a line: Antioxidant activity assessed as DPPH radical scavenging activity measured for 5 mins by UV absorbance analysis. In kind it is functional. Background: The DPPH test is a chemical assay of radical scavenging.
Experiment [2] deals with Calf thymus DNA. Put plainly: Binding affinity to calf thymus DNA assessed as hyperchromism by measuring blue shift in absorption spectra at 40 uM after 2 mins by UV-vis spectroscopy. In kind it is nucleic-acid assay. Conditions: Bos taurus.
The subject of experiment [3] is Calf thymus DNA. In words: Binding affinity to calf thymus DNA assessed as binding constant at 40 uM after 2 mins by UV-vis spectroscopy. The format is nucleic-acid assay. Conditions: Bos taurus.

pIC50: −log10 of the molar value. Values after ≈ are worked out from the molar mass of the structure shown.

By pIC50 is commonly meant −log10 of the IC50, conventionally taken in molar units. As a reminder, the IC50 is the midpoint of a concentration-inhibition curve. Regarding `COc1ccc(N2C(=O)[C@@H](Oc3ccc(Cl)cc3)[C@H]2c2ccc(Oc3nc(N4CCOCC4)nc(N4CCOCC4)n3)cc2)cc1` (relative stereo), the pIC50 with SW 1116 was 4.52; with HEK293, below 4.00; with MCF7, below 4.00; with HepG2, below 4.00. The IC50 in experiment [1] worked out at 6200 µg/mL (≈ 9.61 mM).
`C(=N\c1ccc(Nc2nc(N3CCOCC3)nc(N3CCOCC3)n2)cc1)/c1ccc(Oc2nc(N3CCOCC3)nc(N3CCOCC3)n2)cc1`: the pIC50 in the experiment on SW 1116, in the experiment with HEK293, with MCF7 and with HepG2 was below 4.00 throughout. Further, the IC50 in experiment [1] is above 10000 µg/mL.
For `COc1ccc(/N=C/c2ccc(Oc3nc(N4CCOCC4)nc(N4CCOCC4)n3)cc2)cc1`, the pIC50 in the experiment on SW 1116, in the experiment with HEK293, with MCF7 and with HepG2 was below 4.00 in each case. For the same compound, in experiment [1], the IC50 was found to be 195 µg/mL (≈ 0.409 mM).
As to `COc1ccc(N2C(=O)C3(c4ccccc4Oc4ccccc43)C2c2ccc(Oc3nc(N4CCOCC4)nc(N4CCOCC4)n3)cc2)cc1` (stereo not drawn), the pIC50 is 4.42 in the experiment with SW 1116, below 4.00 with HEK293, below 4.00 in the experiment on MCF7 and below 4.00 in the experiment on HepG2. The IC50 in experiment [1] is above 10000 µg/mL.
For the compound `O=C1[C@@H](Oc2ccc(Cl)cc2)[C@@H](c2ccc(Cl)cc2)N1c1ccc(Nc2nc(N3CCOCC3)nc(N3CCOCC3)n2)cc1` (relative stereo), the pIC50 in the experiment on SW 1116, in the experiment with HEK293, with MCF7 and in the experiment on HepG2 was below 4.00 throughout. In experiment [1], the IC50 is above 10000 µg/mL.
In the case of `CCOc1ccc(/N=C/c2ccc(Oc3nc(N4CCOCC4)nc(N4CCOCC4)n3)cc2)cc1`, the pIC50 in the experiment on SW 1116, in the experiment with HEK293, with MCF7 and in the experiment with HepG2 was below 4.00 each time. Besides, in experiment [1], the IC50 was 50 µg/mL (≈ 0.102 mM).
Take `O=C1[C@@H](Oc2ccccc2)[C@@H](c2ccc(Cl)cc2)N1c1ccc(Nc2nc(N3CCOCC3)nc(N3CCOCC3)n2)cc1` (relative stereo): the pIC50 in the experiment on SW 1116, in the experiment on HEK293, in the experiment on MCF7 and in the experiment with HepG2 was below 4.00 in each case. Also, in experiment [1], the IC50 came to 4800 µg/mL (≈ 7.82 mM).
In the case of `COc1cccc2c1C(=O)c1c(O)c3c(c(O)c1C2=O)C[C@@](O)(C(=O)CO)C[C@@H]3O[C@H]1C[C@H](N)[C@H](O)[C@H](C)O1` [DOXORUBICIN], the pIC50 is 5.16 with SW 1116, 5.21 with HEK293 and 5.14 in the experiment with HepG2.
As for `O=C1[C@@H](Oc2ccc(Cl)cc2Cl)[C@@H](c2cccc([N+](=O)[O-])c2)N1c1ccc(Nc2nc(N3CCOCC3)nc(N3CCOCC3)n2)cc1` (relative stereo), the negative logarithm of the IC50 (pIC50) in the experiment with SW 1116, in the experiment with HEK293, in the experiment with MCF7 and in the experiment on HepG2 was below 4.00 each time. The IC50 in experiment [1] was above 10000 µg/mL.
As for `O=C1[C@@H](Oc2ccc(Cl)cc2)[C@@H](c2ccc(Oc3nc(N4CCOCC4)nc(N4CCOCC4)n3)cc2)N1c1ccc(Nc2nc(N3CCOCC3)nc(N3CCOCC3)n2)cc1`, the pIC50 in the experiment with SW 1116, with HEK293, with MCF7 and in the experiment with HepG2 was below 4.00 in each case. Also, the IC50 in experiment [1] was above 10000 µg/mL.
Turning to `O=C1N(c2ccc(Nc3nc(N4CCOCC4)nc(N4CCOCC4)n3)cc2)C(c2ccc(Cl)cc2)C12c1ccccc1Oc1ccccc12` (stereo not drawn), the Activity in the experiment on Calf thymus DNA [2] was -2 nm. In addition, the pIC50 is 5.69 in the experiment with SW 1116, below 4.00 with HEK293, below 4.00 in the experiment with MCF7 and below 4.00 with HepG2. Also, the IC50 in experiment [1] is above 10000 µg/mL. For the same compound, the Kb in the experiment with Calf thymus DNA [3] came out at 0.935 ×10⁵ /M.
`O=C1[C@@H](Oc2ccc(Cl)cc2Cl)[C@@H](c2ccc(Oc3nc(N4CCOCC4)nc(N4CCOCC4)n3)cc2)N1c1ccc(Nc2nc(N3CCOCC3)nc(N3CCOCC3)n2)cc1` (relative stereo): the pIC50 in the experiment on SW 1116, in the experiment on HEK293, with MCF7 and in the experiment on HepG2 was below 4.00 each time. Also, in experiment [1], the IC50 is above 10000 µg/mL.
In the case of `CCOc1ccc(N2C(=O)[C@@H](Oc3ccc(Cl)cc3)[C@H]2c2ccc(Oc3nc(N4CCOCC4)nc(N4CCOCC4)n3)cc2)cc1` (relative stereo), the negative-log IC50 (pIC50) in the experiment on SW 1116 was 5.82; in the experiment with HEK293 it was below 4.00; in the experiment on MCF7, below 4.00; in the experiment on HepG2, below 4.00. Besides, the IC50 in experiment [1] is above 10000 µg/mL.
As to `O=C1N(c2ccc(Nc3nc(N4CCOCC4)nc(N4CCOCC4)n3)cc2)C(c2cccc([N+](=O)[O-])c2)C12c1ccccc1Oc1ccccc12` (stereo not drawn), the negative logarithm of the IC50 (pIC50) in the experiment on SW 1116, with HEK293, with MCF7 and in the experiment with HepG2 was below 4.00 throughout. For the same compound, in experiment [1], the IC50 is above 10000 µg/mL.
For the compound `O=C1[C@@H](Oc2ccc(Cl)cc2Cl)[C@@H](c2ccc(Cl)cc2)N1c1ccc(Nc2nc(N3CCOCC3)nc(N3CCOCC3)n2)cc1` (relative stereo), the pIC50 with SW 1116 was 4.06; in the experiment on HEK293, below 4.00; with MCF7, below 4.00; in the experiment on HepG2, below 4.00. For the same compound, in experiment [1], the IC50 is above 10000 µg/mL.
`O=C1[C@@H](Oc2ccc(Cl)cc2)[C@@H](c2cccc([N+](=O)[O-])c2)N1c1ccc(Nc2nc(N3CCOCC3)nc(N3CCOCC3)n2)cc1` (relative stereo): the pIC50 in the experiment with SW 1116 is 4.00; with HEK293, below 4.00; with MCF7 it was below 4.00; with HepG2, below 4.00. The IC50 in experiment [1] is above 10000 µg/mL.
As for `O=[N+]([O-])c1cccc(/C=N/c2ccc(Nc3nc(N4CCOCC4)nc(N4CCOCC4)n3)cc2)c1`, the pIC50 in the experiment on SW 1116 is 4.82; in the experiment on HEK293, below 4.00; with MCF7 it was below 4.00; with HepG2, below 4.00. Besides, in experiment [1], the IC50 was found to be 445 µg/mL (≈ 0.907 mM).
For `O=C1N(c2ccc(Nc3nc(N4CCOCC4)nc(N4CCOCC4)n3)cc2)C(c2ccc([N+](=O)[O-])cc2)C12c1ccccc1Oc1ccccc12` (stereo not drawn), the pIC50 in the experiment with SW 1116, in the experiment with HEK293, in the experiment with MCF7 and in the experiment on HepG2 was below 4.00 in each case. In addition, in experiment [1], the half-inhibitory concentration (IC50) is above 10000 µg/mL.
Consider `O=C1[C@@H](Oc2ccccc2)[C@@H](c2cccc([N+](=O)[O-])c2)N1c1ccc(Nc2nc(N3CCOCC3)nc(N3CCOCC3)n2)cc1` (relative stereo), for which the Activity with Calf thymus DNA [2] was -2 nm. Further, the pIC50 is 5.70 in the experiment on SW 1116, below 4.00 in the experiment on HEK293, below 4.00 in the experiment with MCF7 and below 4.00 with HepG2. Further, in experiment [1], the IC50 is above 10000 µg/mL. The Kb in the experiment on Calf thymus DNA [3] worked out at 0.943 ×10⁴ /M.
As for `O=C1[C@@H](Oc2ccccc2)[C@@H](c2ccc(Oc3nc(N4CCOCC4)nc(N4CCOCC4)n3)cc2)N1c1ccc(Nc2nc(N3CCOCC3)nc(N3CCOCC3)n2)cc1` (relative stereo), the pIC50 in the experiment with SW 1116, with HEK293, in the experiment with MCF7 and in the experiment on HepG2 was below 4.00 each time. Further, the IC50 in experiment [1] was above 10000 µg/mL.
In the case of `O=C1[C@@H](Oc2ccc(Cl)cc2Cl)[C@@H](c2ccc([N+](=O)[O-])cc2)N1c1ccc(Nc2nc(N3CCOCC3)nc(N3CCOCC3)n2)cc1` (relative stereo), the pIC50 in the experiment on SW 1116 was 4.45; with HEK293, below 4.00; with MCF7, below 4.00; in the experiment with HepG2 it was below 4.00. The IC50 in experiment [1] came to 5800 µg/mL (≈ 8.36 mM).
`O=C1O[C@H]([C@@H](O)CO)C(O)=C1O` [ASCORBIC ACID]: the IC50 in experiment [1] was 195 µg/mL (≈ 1.11 mM).
`COc1ccc(N2C(=O)[C@@H](Oc3ccccc3)[C@H]2c2ccc(Oc3nc(N4CCOCC4)nc(N4CCOCC4)n3)cc2)cc1`: the pIC50 with SW 1116, in the experiment with HEK293, in the experiment with MCF7 and in the experiment on HepG2 was below 4.00 each time. In addition, in experiment [1], the IC50 is above 10000 µg/mL.
On to `COc1ccc(N2C(=O)[C@@H](Oc3ccc(Cl)cc3Cl)[C@H]2c2ccc(Oc3nc(N4CCOCC4)nc(N4CCOCC4)n3)cc2)cc1` (relative stereo), for which the pIC50 in the experiment with SW 1116 was 5.57; with HEK293 it was below 4.00; in the experiment with MCF7, below 4.00; with HepG2, below 4.00. Also, in experiment [1], the IC50 was 9600 µg/mL (≈ 14.1 mM).
Turning to `CCOc1ccc(N2C(=O)[C@@H](Oc3ccccc3)[C@H]2c2ccc(Oc3nc(N4CCOCC4)nc(N4CCOCC4)n3)cc2)cc1` (relative stereo), the pIC50 in the experiment on SW 1116, in the experiment on HEK293, with MCF7 and with HepG2 was below 4.00 each time. Moreover, in experiment [1], the IC50 was found to be 5900 µg/mL (≈ 9.44 mM).
On to `CN(C)c1ccc(/N=C/c2ccc(Oc3nc(N4CCOCC4)nc(N4CCOCC4)n3)cc2)cc1`, for which the pIC50 was 4.81 in the experiment on SW 1116, below 4.00 in the experiment on HEK293, below 4.00 in the experiment with MCF7 and below 4.00 in the experiment with HepG2. Moreover, the half-maximal inhibitory concentration (IC50) in experiment [1] stood at 30 µg/mL (≈ 0.0613 mM).
For the compound `Clc1ccc(/C=N/c2ccc(Nc3nc(N4CCOCC4)nc(N4CCOCC4)n3)cc2)cc1`, the pIC50 in the experiment with SW 1116 is 4.03; with HEK293 it was below 4.00; in the experiment with MCF7, below 4.00; in the experiment on HepG2 it was below 4.00. The IC50 in experiment [1] stood at 275 µg/mL (≈ 0.573 mM).
Consider `O=C1[C@@H](Oc2ccccc2)[C@@H](c2ccc([N+](=O)[O-])cc2)N1c1ccc(Nc2nc(N3CCOCC3)nc(N3CCOCC3)n2)cc1` (relative stereo), for which the pIC50 is 4.76 in the experiment on SW 1116, below 4.00 with HEK293, below 4.00 with MCF7 and below 4.00 with HepG2. The IC50 in experiment [1] is above 10000 µg/mL.
